# Measurements taken from patent publication US8703768B2, “Nitrogen containing heteroaryl compounds” (Hoffmann-La Roche Inc., priority 2010, dated 2014).
# Biological target: human PDE10A (Homo sapiens (Human), UniProt Q9Y233)
# Assay: human PDE10A full length Scintillation Proximity Assay (SPA)
# Type: biochemical
# Conditions: 50 nM cGMP and 50 nM [3H]-cGMP, 20 minutes at room temperature; read-out: PDE10A inhibition IC50
# How it was run: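 Radiometric SPA read-out: after 20 min at room temperature with [^3H]-cGMP/cGMP substrate, zinc sulphate (18 mM) bead stop reagent added and counts read after 1 h. Non-specific signal defined without enzyme; full-length protein used.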
# Chain of human PDE10A (Q9Y233 other isoform, or with tags, fused parts or gaps): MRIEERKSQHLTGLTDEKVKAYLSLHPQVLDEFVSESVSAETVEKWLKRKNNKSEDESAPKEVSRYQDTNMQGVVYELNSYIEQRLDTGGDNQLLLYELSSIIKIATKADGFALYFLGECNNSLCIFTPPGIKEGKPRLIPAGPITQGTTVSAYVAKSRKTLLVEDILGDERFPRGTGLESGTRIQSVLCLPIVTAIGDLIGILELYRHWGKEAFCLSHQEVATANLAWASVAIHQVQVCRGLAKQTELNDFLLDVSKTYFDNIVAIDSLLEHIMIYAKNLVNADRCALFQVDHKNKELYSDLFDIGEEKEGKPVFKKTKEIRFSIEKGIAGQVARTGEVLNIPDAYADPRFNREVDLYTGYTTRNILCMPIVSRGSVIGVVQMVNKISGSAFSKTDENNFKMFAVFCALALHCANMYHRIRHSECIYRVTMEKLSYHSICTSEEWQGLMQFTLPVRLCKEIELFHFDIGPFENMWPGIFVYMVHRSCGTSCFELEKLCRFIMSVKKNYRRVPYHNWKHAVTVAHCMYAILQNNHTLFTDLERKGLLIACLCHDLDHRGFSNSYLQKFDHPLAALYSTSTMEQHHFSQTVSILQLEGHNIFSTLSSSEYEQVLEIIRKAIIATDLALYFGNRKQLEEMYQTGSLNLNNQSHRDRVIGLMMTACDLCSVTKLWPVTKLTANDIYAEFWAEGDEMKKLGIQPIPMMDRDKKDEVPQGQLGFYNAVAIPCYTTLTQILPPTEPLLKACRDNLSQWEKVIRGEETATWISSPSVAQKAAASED
row,Structure (SMILES),IC50
1,"CN1CC(NC(=O)c2c(NC(=O)c3nc(C4CC4)cnc3Nc3cncnc3)cnn2C)C1 [Example 315, 6-Cyclopropyl-3-(pyrimidin-5-ylamino)-pyrazine-2-carboxylic acid [1-methyl-5-(1-methyl-azetidin-3-ylcarbamoyl)-1H-pyrazol-4-yl]-amide]",11.1 nM
2,"CN(C)C(=O)c1c(NC(=O)c2nc(C3CC3)cnc2Nc2cncnc2)ccc(F)c1F [Example 316, 6-Cyclopropyl-3-(pyrimidin-5-ylamino)-pyrazine-2-carboxylic acid (2-dimethylcarbamoyl-3,4-difluoro-phenyl)-amide]",24.1 nM
3,"CC(C)(O)CNC(=O)c1c(NC(=O)c2nc(C3CC3)cnc2Nc2cncnc2)ccc(F)c1F [Example 318, 6-Cyclopropyl-3-(pyrimidin-5-ylamino)-pyrazine-2-carboxylic acid [3,4-difluoro-2-(2-hydroxy-2-methyl-propylcarbamoyl)-phenyl]-amide]",4.6 nM
4,"O=C(Nc1ccc(F)c(F)c1C(=O)N1CCC1)c1nc(C2CC2)cnc1Nc1cncnc1 [Example 319, 6-Cyclopropyl-3-(pyrimidin-5-ylamino)-pyrazine-2-carboxylic acid [2-(azetidine-1-carbonyl)-3,4-difluoro-phenyl]-amide]",15.5 nM
5,"O=C(Nc1c(C(=O)N2CCC2)ccc(F)c1F)c1nc(C2CC2)cnc1Nc1cncnc1 [Example 320, 6-Cyclopropyl-3-(pyrimidin-5-ylamino)-pyrazine-2-carboxylic acid [6-(azetidine-1-carbonyl)-2,3-difluoro-phenyl]-amide]",86.3 nM
6,"CCOC(=O)CCc1ccc(NC(=O)c2nc(C3CC3)cnc2Nc2cncnc2)c(C(=O)NC)c1 [Example 321, 3-(4-{[6-Cyclopropyl-3-(pyrimidin-5-ylamino)-pyrazine-2-carbonyl]-amino}-3-methylcarbamoyl-phenyl)-propionic acid ethyl ester]",0.6 nM
7,"CNC(=O)COc1ccc(NC(=O)c2nc(C3CC3)cnc2Nc2cncnc2)c(C(=O)NC)c1 [Example 322, 6-Cyclopropyl-3-(pyrimidin-5-ylamino)-pyrazine-2-carboxylic acid (2-methylcarbamoyl-4-methylcarbamoylmethoxy-phenyl)-amide]",1.7 nM
8,"O=C(Nc1cc(F)cc(F)c1C(=O)N1CCC1)c1nc(C2CC2)cnc1Nc1cncnc1 [Example 323, 6-Cyclopropyl-3-(pyrimidin-5-ylamino)-pyrazine-2-carboxylic acid [2-(azetidine-1-carbonyl)-3,5-difluoro-phenyl]-amide]",35.9 nM
9,"CN(C)C(=O)c1ccc(F)c(F)c1NC(=O)c1nc(C2CC2)cnc1Nc1cncnc1 [Example 325, 6-Cyclopropyl-3-(pyrimidin-5-ylamino)-pyrazine-2-carboxylic acid (6-dimethylcarbamoyl-2,3-difluoro-phenyl)-amide]",335 nM
10,"CNC(=O)c1cc(CCC(=O)O)ccc1NC(=O)c1nc(C2CC2)cnc1Nc1cncnc1 [Example 328, 3-(4-{[6-Cyclopropyl-3-(pyrimidin-5-ylamino)-pyrazine-2-carbonyl]-amino}-3-methylcarbamoyl-phenyl)-propionic acid]",0.4 nM
11,"CNC(=O)c1c(NC(=O)c2nc(N3CCN(C)CC3)cnc2Nc2cncnc2)cnn1C [Example 333, 4-Methyl-5′-(pyrimidin-5-ylamino)-3,4,5,6-tetrahydro-2H-[1,2]bipyrazinyl-6′-carboxylic acid (1-methyl-5-methylcarbamoyl-1H-pyrazol-4-yl)-amide]",691 nM
12,"Cn1ncc(NC(=O)c2nc(C3CC3)cnc2Nc2cncnc2)c1C(=O)NC1CCCC1O (centres unmarked) [Example 336, 6-Cyclopropyl-3-(pyrimidin-5-ylamino)-pyrazine-2-carboxylic acid [5-(2-hydroxy-cyclopentylcarbamoyl)-1-methyl-1H-pyrazol-4-yl]-amide]",5.3 nM
13,"CNC(=O)c1cc(OCC(C)(C)O)ccc1NC(=O)c1nc(C2CC2)cnc1Nc1cncnc1 [Example 338, 6-Cyclopropyl-3-(pyrimidin-5-ylamino)-pyrazine-2-carboxylic acid [4-(2-hydroxy-2-methyl-propoxy)-2-methylcarbamoyl-phenyl]-amide]",2.1 nM

# The remaining compounds from weak to strong by IC50, led by results:
row,IC50,Structure (SMILES)
1,250 nM,"CNC(=O)c1c(NC(=O)c2nc(C(C)(C)O)ncc2Nc2cncnc2)cnn1C [Example 340, 2-(1-Hydroxy-1-methyl-ethyl)-5-(pyrimidin-5-ylamino)-pyrimidine-4-carboxylic acid (1-methyl-5-methylcarbamoyl-1H-pyrazol-4-yl)-amide]"
2,126 nM,"CNC(=O)c1c(NC(=O)c2nc(OCC(F)(F)F)ncc2Nc2cncnc2)cnn1C [Example 337, 5-(Pyrimidin-5-ylamino)-2-(2,2,2-trifluoro-ethoxy)-pyrimidine-4-carboxylic acid (1-methyl-5-methylcarbamoyl-1H-pyrazol-4-yl)-amide]"
3,49.3 nM,"CNC(=O)c1c(NC(=O)c2nc(OCC(F)(F)F)cnc2Nc2cncnc2)cnn1C [Example 339, 3-(Pyrimidin-5-ylamino)-6-(2,2,2-trifluoro-ethoxy)-pyrazine-2-carboxylic acid (1-methyl-5-methylcarbamoyl-1H-pyrazol-4-yl)-amide]"
4,28 nM,"CNC(=O)c1c(NC(=O)c2nc(C(C)(C)O)cnc2Nc2cncnc2)cnn1C [Example 341, 6-(1-Hydroxy-1-methyl-ethyl)-3-(pyrimidin-5-ylamino)-pyrazine-2-carboxylic acid (1-methyl-5-methylcarbamoyl-1H-pyrazol-4-yl)-amide]"
5,12.8 nM,"CNC(=O)c1c(NC(=O)c2nc(CC(C)C)ncc2Nc2cncnc2)cnn1C [Example 332, 2-Isobutyl-5-(pyrimidin-5-ylamino)-pyrimidine-4-carboxylic acid (1-methyl-5-methylcarbamoyl-1H-pyrazol-4-yl)-amide]"
6,3.1 nM,"CC(C)Cc1ncc(Nc2cncnc2)c(C(=O)Nc2cccnc2C(=O)NCC(C)(C)O)n1 [Example 331, 2-Isobutyl-5-(pyrimidin-5-ylamino)-pyrimidine-4-carboxylic acid [2-(2-hydroxy-2-methyl-propylcarbamoyl)-pyridin-3-yl]-amide]"
7,2.9 nM,"CC(C)c1ncc(Nc2cncnc2)c(C(=O)Nc2cccnc2C(=O)NCC(C)(C)O)n1 [Example 329, 2-Isopropyl-5-(pyrimidin-5-ylamino)-pyrimidine-4-carboxylic acid [2-(2-hydroxy-2-methyl-propylcarbamoyl)-pyridin-3-yl]-amide]"
8,2.7 nM,"CNC(=O)c1c(NC(=O)c2nc(C3CC3)cnc2Nc2cncnc2)ccc(F)c1F [Example 317, 6-Cyclopropyl-3-(pyrimidin-5-ylamino)-pyrazine-2-carboxylic acid (3,4-difluoro-2-methylcarbamoyl-phenyl)-amide]"
9,2.7 nM,"CC(C)(O)CNC(=O)c1ccc(F)c(F)c1NC(=O)c1nc(C2CC2)cnc1Nc1cncnc1 [Example 326, 6-Cyclopropyl-3-(pyrimidin-5-ylamino)-pyrazine-2-carboxylic acid [2,3-difluoro-6-(2-hydroxy-2-methyl-propylcarbamoyl)-phenyl]-amide]"
10,2.2 nM,"CON(C)C(=O)c1c(NC(=O)c2nc(C3CC3)cnc2Nc2cncnc2)cnn1C [Example 334, 6-Cyclopropyl-3-(pyrimidin-5-ylamino)-pyrazine-2-carboxylic acid [5-(methoxy-methyl-carbamoyl)-1-methyl-1H-pyrazol-4-yl]-amide]"
11,1.1 nM,"CC(C)(O)CNC(=O)c1c(F)cc(F)cc1NC(=O)c1nc(C2CC2)cnc1Nc1cncnc1 [Example 324, 6-Cyclopropyl-3-(pyrimidin-5-ylamino)-pyrazine-2-carboxylic acid [3,5-difluoro-2-(2-hydroxy-2-methyl-propylcarbamoyl)-phenyl]-amide]"
12,1.1 nM,"CC(C)(O)CNC(=O)c1ncccc1NC(=O)c1nc(C(C)(C)C)ncc1Nc1cncnc1 [Example 330, 2-tert-Butyl-5-(pyrimidin-5-ylamino)-pyrimidine-4-carboxylic acid [2-(2-hydroxy-2-methyl-propylcarbamoyl)-pyridin-3-yl]-amide]"
13,0.8 nM,"Cn1ncc(NC(=O)c2nc(C3CC3)cnc2Nc2cncnc2)c1C(=O)N1CCCO1 [Example 335, 6-Cyclopropyl-3-(pyrimidin-5-ylamino)-pyrazine-2-carboxylic acid [5-(isoxazolidine-2-carbonyl)-1-methyl-1H-pyrazol-4-yl]-amide]"
